In patent publication US20090178587A9, “Control of biofilms in industrial water systems” (priority 2001, published 2009):
Values joined by “and” are separate entries in the source; they are usually repeats but may differ in a detail not shown here. Identical values can stand only once. Like-named read-outs stand apart in the source and are kept apart here.

Assays:
[1] = tested on: biofilms of Pseudomonas aeruginosa (ATCC 15442); test: MBEC (minimum biofilm eradication concentration) test, 96-peg Calgary biofilm device; type: cell-based
[2] = tested on: biofilms consisting of a consortium of Legionella, heterotrophic bacteria and amoebae; conditions: cited from earlier work
[3] = tested on: biofilm bacteria; conditions: 1 ppm residuals; cited from earlier work
[4] = tested on: Legionella pneumophila; conditions: 1 mg/L for 24 hours; either metal surface; cited from earlier work
[5] = tested on: 21-day old biofilms; conditions: 1 mg/L free residual; 30° C.; cited from earlier work
[6] = tested on: biofilms of Sphaerotilus natans; conditions: dynamic tests; maximum applied dose 20 ppm; cited from earlier work
[7] = tested on: biofilm bacteria; conditions: 1.5 mg/L applied continuously for 18 hours; cited from earlier work
[8] = tested on: HPC Bacteria (planktonic and biofilm); test: Laboratory model water system, 48-hour biocide challenge and 14-day recovery: HPC bacteria; type: cell-based
[9] = tested on: biofilm-associated Legionella; conditions: cited from earlier work
[10] = tested on: sessile bacteria; conditions: pH 9; cited from earlier work
[11] = tested on: 3-day biofilms; conditions: cited from earlier work
[12] = tested on: biofilm bacteria; conditions: cited from earlier work
[13] = 7-day biofilm, one hour contact time, average, halogen biocides as Cl2
[14] = maximum log reduction, typically 2-12 hours after biocide application
[15] = relative to control after the 14-day recovery period
[16] = 1-day biofilm, one hour contact time, average, halogen biocides as Cl2, others as active ingredient
[17] = 1-day biofilm, one hour contact time, individual determinations, halogen biocides as Cl2, others as active ingredient

SMILES: CC1(C)C(=O)N(Cl)C(=O)N1Br [BCDMH, 1-bromo-3-chloro-5,5-dimethylhydantoin]
- 1-Day Biofilm MBEC, avg. [1]: 2.5 ppm
- 1-Day Biofilm MBEC, ppm [1]: 2.5, 2.5 ppm
- 7-Day Biofilm MBEC, ppm [1]: 5, 10 ppm
- 7-Day Biofilm MBEC, avg. [1, 13]: 7.5 ppm
- efficacy against biofilm-associated heterotrophic bacteria and Legionella [2]: also effective but was slower acting
- log kill of biofilm bacteria [3]: 1 log
- viable Legionella recovered from the biofilms [4]: no viable Legionella were recovered
- reduction of biofilm counts on mild steel [5]: 1.4 logs
- reduction of biofilm counts on stainless steel [5]: 2.0 logs

SMILES: [Na+].[O-]Cl [Bleach, NaOCl]
- 1-Day Biofilm MBEC, avg. [1]: 3.8 ppm
- 1-Day Biofilm MBEC, ppm [1]: 5.0, 2.5 ppm
- 7-Day Biofilm MBEC, avg. [1]: 20 ppm
- 7-Day Biofilm MBEC, ppm [1]: 20, 20 ppm

SMILES: CCC1(C)C(=O)N(Cl)C(=O)N1Br (centres unmarked) [BrMEH, bromo-chloro-methylethylhydantoin]
- treatment level for biofilm control (but not eradication) [6]: 10 ppm
- log kill of biofilm bacteria [3]: 0.7 log

SMILES: [O][Cl+][O-] [ClO2, Chlorine dioxide]
- reduction of biofilm bacteria [7]: 99.4%

SMILES: CC1(C)C(=O)N(Br)C(=O)N1Br [DBDMH, 1-3-dibromo-5,5-dimethylhydantoin]
- 1-Day Biofilm MBEC, avg. [1]: 1.2 ppm
- 1-Day Biofilm MBEC, ppm [1]: 1.2 ppm
- 7-Day Biofilm MBEC, avg. [1]: 5 ppm
- 7-Day Biofilm MBEC, ppm [1]: 5, 5 ppm
- MBEC [1]: 1.4 mg/L
- Log Reduction, HPC Bacteria, Biofilm [8, 14]: 2.7 log
- Log Reduction, HPC Bacteria, Planktonic [8, 14]: 3.6 log
- Log Reduction, HPC Bacteria, Biofilm [8, 15]: 0.4 log
- Log Reduction, HPC Bacteria, Planktonic [8, 15]: 0.2 log

SMILES: N#CC(Br)(Br)C(N)=O [DBNPA, Dibromonitrilopropionamide]
- effect on levels of biofilm-associated Legionella [9]: non detectable levels
- 1-Day Biofilm MBEC, avg. [1, 16]: 3.1 ppm
- 1-Day Biofilm MBEC, ppm [1, 17]: 2.0 ppm and 4.1 ppm

SMILES: CCCCCCCCCCSCCN.Cl [DTEA, decylthioethaneamine hydrochloride]
- 1-Day Biofilm MBEC, avg. [1, 16]: 100 ppm
- 1-Day Biofilm MBEC, ppm [1, 17]: 100, 100 ppm

SMILES: O=CCCCC=O [Glutaraldehyde, glutaraldehyde]
- effect on levels of biofilm-associated Legionella [9]: non detectable levels
- 1-Day Biofilm MBEC, avg. [1, 16]: 50 ppm
- 1-Day Biofilm MBEC, ppm [1, 17]: 50, 50 ppm
- 7-Day Biofilm MBEC, avg. [1, 13]: ~200 ppm
- 7-Day Biofilm MBEC, ppm ([1]; 7-day biofilm, one hour contact time, individual determinations, halogen biocides as Cl2): 100 ppm and > 200 ppm
- efficacy against biofilm-associated heterotrophic bacteria and Legionella [2]: effective
- log reductions in sessile bacteria / biofilm counts [10]: 2 log
- "no effect" level on biofilm removal [11]: 20 ppm

SMILES: OO [H2O2, hydrogen peroxide]
- 1-Day Biofilm MBEC, avg. [1]: >200 ppm
- 1-Day Biofilm MBEC, ppm [1]: >100, >100 ppm
- log reductions in sessile bacteria / biofilm counts [10]: 2 log

SMILES: OBr [HOBr, hypobromous acid]
- treatment level for biofilm control (but not eradication) [6]: 15 ppm

SMILES: OCl [HOCl, Hypochlorous acid]
- treatment level for biofilm control (but not eradication) [6]: > 20 ppm

SMILES: CC(=O)OO [Peracetic Acid, peracetic acid]
- 1-Day Biofilm MBEC, avg. ([1]; 1-day biofilm, four-hour contact time, average (est.)): ~150 ppm
- 1-Day Biofilm MBEC, ppm ([1]; 1-day biofilm, four-hour contact time, individual determinations, active ingredient): 100, >100 ppm

SMILES: O=S(=O)([O-])[O-].OC[P+](CO)(CO)CO.OC[P+](CO)(CO)CO [THPS]
- log reductions in sessile bacteria / biofilm counts [10]: 2 log

SMILES: O=c1n(Cl)c(=O)n(Cl)c(=O)n1Cl [Trichlor, 1,3,5-trichloroisocyanuric acid]
- 1-Day Biofilm MBEC, avg. [1]: 1.9 ppm
- 1-Day Biofilm MBEC, ppm [1]: 2.5, 1.2 ppm
- 7-Day Biofilm MBEC, avg. [1]: 20 ppm
- 7-Day Biofilm MBEC, ppm [1]: 20, 20 ppm

SMILES: BrBr [bromine]
- log reductions of biofilm bacteria [12]: ~3 log
- effect on levels of biofilm-associated Legionella [9]: non detectable levels

SMILES: O=[O+][O-] [ozone]
- effect on levels of biofilm-associated Legionella [9]: did not appear to significantly affect
